The results in this text go back to patent publication US7109364B2, “Group of anti-cancer compounds with specific structure and their production method” (priority 2000, dated 2006).

What is called IC50 is the concentration needed to halve the response being measured. As usually defined, the IC90 is the concentration at which the effect reaches the 90% level.

≈ marks a conversion by molar mass, not a printed value. Like-named read-outs stand apart in the source and are kept apart here.

The test system of assay [1] is K562 human leukemia cell line. The assay can be described thus: In vitro anti-cancer efficacy, K562, trypan blue dye exclusion, 48 hours. In kind it is cell-based. Conditions: for IC50 / IC90: Homo sapiens; for IC50: read-out: K562 IC50; for IC90: read-out: K562 IC90. Here is the method:
(§1) The above compounds were dissolved in DMSO at stock concentration of 10 mg/ml and stored at 4° C. Before each experiment they were diluted to desired concentration with serum-free RPMI 1640 medium
1. K562 human leukemia cell line: K562 cells were maintained in RPMI 1640 medium with 5% fetal bovine serum at 37° C. under 5% CO2 atmosphere. 4×10^4 cells/well were plated on 96-well plate. After treatment with the test compounds and solvent control (DMSO) for 48 hours, numbers of live cells were counted by trypan blue dye exclusion.
(§2) Reagents and Methods: same as in Experiment 1.

The subject of assay [2] is B16 mouse melanoma cell line. The assay can be described thus: In vitro anti-cancer efficacy, B16, SRB method, 48 hours. In kind it is cell-based. Conditions: for IC50 / IC90: Mus musculus; for IC50: read-out: B16 IC50; for IC90: read-out: B16 IC90. Here is the method: as §1
2. B16 mouse melanoma cell line: B16 cells were maintained under the same condition as above. 2×10^4 cells/well were plated on 48-well plate and left for 12 hours for attachment. Cells were then treated with the test compounds and solvent control for 48 hours. Numbers of live cells were determined by SRB method. Briefly, cells were fixed with 50 μl/well 15% TCA for 1 hour, and then washed three times with double-distilled water. After drying 50 μl/well 1% SRB dye was added and reacted for 10 minutes. Plate was washed with 1% acetic acid. 0.2 ml Tris buffer (pH 9.6) was added and OD510 was recorded.
as §2
(In SRB staining, fixed cells bind dye roughly in proportion to their protein.)

The mark [3] stands for this setting: K562, Table 2, unit inferred, methods same as in Experiment 1.
Setting [4] is: Table 2, unit inferred, methods same as in Experiment 1.

Take `CC(C)CC=CCCCCC(=O)O` [9-methyl-6-decenoic acid]: the IC50 in assay [1] (setting [3]) worked out at 50.8 µg/mL (≈ 276 µM); in assay [2] (setting [4]), 90 µg/mL (≈ 488 µM). For the same compound, the IC90 is 83 µg/mL (≈ 450 µM) in assay [1] (setting [3]) and 269 µg/mL (≈ 1460 µM) in assay [2] (setting [4]).
The like results for `CC(C)CCCCCCCC(=O)O` [9-methyl-decanoic acid, reference compound] were, in that order, 55.5 µg/mL (≈ 298 µM), 97 µg/mL (≈ 521 µM), 87 µg/mL (≈ 467 µM) and 280 µg/mL (≈ 1500 µM).
The corresponding values for `CC(C)CCCCCCCC=CCCCCC(=O)O` [15-methyl-6-hexadecenoic acid] are 23.8 µg/mL (≈ 88.7 µM), 21.3 µg/mL (≈ 79.3 µM), 30.5 µg/mL (≈ 114 µM) and 35.2 µg/mL (≈ 131 µM).
`CC(C)CCCCCCCCCCCCCC(=O)O` [15-methyl-hexadecanoic acid, reference compound]: in assay [1] (setting [3]), the IC50 is 25.9 µg/mL (≈ 95.8 µM) and the IC90 was 35.6 µg/mL (≈ 132 µM). In assay [2] (setting [4]), the IC50 is 20.7 µg/mL (≈ 76.5 µM) and the IC90 is 38.2 µg/mL (≈ 141 µM).
As to `CC(C)CCCCCCCCCCCC(=O)Nc1ccc(S(=O)(=O)O)cc1` [Compound 2, N-(4-Sulfo-phenyl)-13-methyl tetradecamide], in assay [1] (Table 1, 48 hours), the “K562 IC50” value came to 27.1 µg/mL and the “K562 IC90” value was 37.8 µg/mL. Besides, in assay [2] (Table 1, 48 hours), the “B16 IC50” value stood at 25.4 µg/mL and the “B16 IC90” value came to 35.7 µg/mL.
Regarding `CC(C)CCCCCCCCCCCC(=O)NCC(=O)O` [Compound 3, N-(13-methyl-tetradecanoyl)glycine], in assay [1] (K562, Table 1, 48 hours), the IC50 came out at 14.7 µg/mL (≈ 49.1 µM) and the IC90 came to 21.9 µg/mL (≈ 73.1 µM). Moreover, in assay [2] (Table 1, 48 hours), the IC50 came to 12.8 µg/mL (≈ 42.7 µM) and the IC90 worked out at 20.1 µg/mL (≈ 67.1 µM).
The corresponding values for `CC(C)CCCCCCCCCCCC(=O)N[C@@H](C)C(=O)O` [Compound 4, N-(13-methyl-tetradecanoyl)-L-alanine] are 11.2 µg/mL (≈ 35.7 µM), 20.7 µg/mL (≈ 66 µM), 14.8 µg/mL (≈ 47.2 µM) and 18.4 µg/mL (≈ 58.7 µM).
The like results for `CC(C)CCCCCCCCCCCC(=O)N[C@@H](Cc1ccccc1)C(=O)O` [Compound 5, N-(13-methyl-tetradecanoyl)-L-phenylalanine] were, in that order, 10.3 µg/mL (≈ 26.4 µM), 19.6 µg/mL (≈ 50.3 µM), 13.4 µg/mL (≈ 34.4 µM) and 20.5 µg/mL (≈ 52.6 µM).
Regarding `CC(C)CCCCCCCCCCCC(=O)N[C@H](C(=O)O)C(C)C` [Compound 6, N-(13-methyl-tetradecanoyl)-L-valine], in assay [1] (K562, Table 1, 48 hours), the IC50 was found to be 18.1 µg/mL (≈ 53 µM) and the IC90 was determined as 22.5 µg/mL (≈ 65.9 µM). Besides, in assay [2] (Table 1, 48 hours), the IC50 is 11.7 µg/mL (≈ 34.3 µM) and the IC90 was determined as 19.2 µg/mL (≈ 56.2 µM).
The like results for `CC(C)CCCCCCCCCCCC(=O)N[C@@H](CC(C)C)C(=O)O` [Compound 7, N-(13-methyl-tetradecanoyl)-L-leucine] were, in that order, 11.8 µg/mL (≈ 33.2 µM), 30.6 µg/mL (≈ 86.1 µM), 10.4 µg/mL (≈ 29.2 µM) and 20.1 µg/mL (≈ 56.5 µM).
The corresponding values for `CC[C@H](C)[C@H](NC(=O)CCCCCCCCCCCC(C)C)C(=O)O` [Compound 8, N-(13-methyl-tetradecanoyl)-L-isoleucine] are 19.3 µg/mL (≈ 54.3 µM), 28.6 µg/mL (≈ 80.4 µM), 11.1 µg/mL (≈ 31.2 µM) and 18.9 µg/mL (≈ 53.2 µM).
The corresponding values for `CC(C)CCCCCCCCCCCC(=O)N[C@@H](CCC(=O)O)C(=O)O` [Compound 9, N-(13-methyl-tetradecanoyl)-L-glutamic acid] are 28.2 µg/mL (≈ 75.9 µM), 37.9 µg/mL (≈ 102 µM), 26.3 µg/mL (≈ 70.8 µM) and 35.1 µg/mL (≈ 94.5 µM).
Take `CC(C)CCCCCCCCCCCC(=O)N1CCC[C@H]1C(=O)O` [Compound 10, N-(13-methyl-tetradecanoyl)-L-proline]: in assay [1] (K562, 48 h), the IC50 is 17.2 µg/mL (≈ 50.7 µM) and the IC90 is 25.3 µg/mL (≈ 74.5 µM). For the same compound, in assay [2] (48 h), the concentration for half-maximal inhibition (IC50) is 15.2 µg/mL (≈ 44.8 µM) and the IC90 worked out at 17.3 µg/mL (≈ 51 µM).
With `CC(C)CCCCCCCCCCCC(=O)N[C@@H](C=O)[C@@H](O)[C@H](O)[C@H](O)CO` [Compound 11, N-(13-methyl-tetradecanoyl)-2-amino-2-deoxyglucose], in assay [1] (K562, Table 1, 48 hours), the IC50 was 24.3 µg/mL (≈ 60.2 µM) and the IC90 was 38.1 µg/mL (≈ 94.4 µM). In assay [2] (Table 1, 48 hours), the IC50 turned out to be 24.5 µg/mL (≈ 60.7 µM) and the IC90 is 34.6 µg/mL (≈ 85.7 µM).
The corresponding values for `CC(C)CCCCCCCCCCCC(=O)Nc1ccc(C(=O)O)c(O)c1` [Compound 12, N-(3-Hydroxy-4-carboxylphenyl)-13-methyl-tetradecanamide] are 18.7 µg/mL (≈ 49.5 µM), 24.7 µg/mL (≈ 65.4 µM), 16.5 µg/mL (≈ 43.7 µM) and 22.9 µg/mL (≈ 60.7 µM).
On to `CCN(CC)C(=O)CCCCCCCCCCCC(C)C` [Compound 13, N,N-Diethyl-13-methyl-tetradecanamide], for which, in assay [1] (K562, Table 1, 48 hours), the half-maximal inhibitory concentration (IC50) turned out to be 9.1 µg/mL (≈ 30.6 µM) and the IC90 amounted to 42.4 µg/mL (≈ 143 µM). In assay [2] (Table 1, 48 hours), the half-inhibitory concentration (IC50) turned out to be 19.3 µg/mL (≈ 64.9 µM) and the IC90 stood at 31.9 µg/mL (≈ 107 µM).
The corresponding values for `CC(C)CCCCCCCCCCCC(=O)N1CCCCC1` [Compound 14, N-(13-Methyltetradecanoyl)piperidine] are 18.4 µg/mL (≈ 59.4 µM), 38.5 µg/mL (≈ 124 µM), 17.2 µg/mL (≈ 55.6 µM) and 33.7 µg/mL (≈ 109 µM).
The corresponding values for `CC(C)CCCCCCCCCCCC(=O)N1CCCC1` [Compound 15, N-(13-Methyl-tetradecanoyl)pyrrolidine] are 16.2 µg/mL (≈ 54.8 µM), 25 µg/mL (≈ 84.6 µM), 13.1 µg/mL (≈ 44.3 µM) and 17.3 µg/mL (≈ 58.5 µM).
The corresponding values for `CC(C)CCCCCCCCCCCC(=O)N1CCOCC1` [Compound 16, N-(13-Methyl-tetradecanoyl)morpholine] are 15.9 µg/mL (≈ 51 µM), 20.4 µg/mL (≈ 65.5 µM), 11.9 µg/mL (≈ 38.2 µM) and 19.2 µg/mL (≈ 61.6 µM).
Take `CC(C)CCCCCCCCCCC(=O)c1ccc(O)cc1O` [Compound 18, (2,4,-dihydroxy phenyl)-12-methyl tridecanone]: in assay [1] (Table 1, 48 hours), the “K562 IC50” value is 6.42 µg/mL and the “K562 IC90” value was 8.90 µg/mL. In assay [2] (Table 1, 48 hours), the “B16 IC50” value worked out at 5.91 µg/mL and the “B16 IC90” value stood at 8.12 µg/mL.
The like results for `CC(C)CCCCCCCCCCCCc1ccc(O)cc1O` [Compound 21, (13-Methyl tetradecyl)-2,4-dihydroxy phene] were, in that order, 3.62 µg/mL, 5.25 µg/mL, 3.22 µg/mL and 5.14 µg/mL.
With `CC(C)(C)CCCCCCCCCCCCc1ccc(O)cc1O` [Compound 22, (13,13-Dimethyl tetradecyl)-2,4-dihydroxy phene], in assay [1] (Table 1, 48 hours), the “K562 IC50” value came to 3.92 µg/mL and the “K562 IC90” value came to 5.36 µg/mL. In assay [2] (Table 1, 48 hours), the “B16 IC50” value stood at 3.63 µg/mL and the “B16 IC90” value amounted to 5.42 µg/mL.
The corresponding values for `CCC(C)CCCCCCCCCCCc1ccc(O)cc1O` (stereo not shown) [Compound 23, (12-Methyl tetradecyl)-2,4-dihydroxy phene] are 9.51 µg/mL, 14.6 µg/mL, 8.81 µg/mL and 13.8 µg/mL.
The like results for `CC(C)CCCCCCCCCCCCc1ccc(O)c(O)c1O` [Compound 24, (13-Methyl tetradecyl)-2,3,4-trihydroxy phene] were, in that order, 13.6 µg/mL, 19.2 µg/mL, 12.8 µg/mL and 19.5 µg/mL.
Take `CC(C)CCCCCCCCCCCNc1ccc(S(=O)(=O)O)cc1` [Compound 25, N-(12-Methyltridecyl)-4-amino benzenesulfonic acid]: in assay [1] (K562, Table 1, 48 hours), the IC50 worked out at 15.1 µg/mL (≈ 40.9 µM) and the IC90 is 20 µg/mL (≈ 54.1 µM). In assay [2] (Table 1, 48 hours), the IC50 was 13.5 µg/mL (≈ 36.5 µM) and the IC90 was determined as 18.8 µg/mL (≈ 50.9 µM).
The corresponding values for `CC(C)CCCCCCCCCCCNc1ccc(O)c(O)c1` [Compound 26, N-(12-Methyl-tridecyl)-4-amino-1,2-benzenediol] are 6.73 µg/mL (≈ 20.9 µM), 13.5 µg/mL (≈ 42 µM), 5.81 µg/mL (≈ 18.1 µM) and 12.6 µg/mL (≈ 39.2 µM).
As for `CC(C)CCCCCCCCCCC(Br)C(=O)O` (stereo not shown) [Compound 27, 2-Bromo-13-methyl-tetradecanoic acid], in assay [1] (K562, Table 1, 48 hours), the IC50 is 7.21 µg/mL (≈ 22.4 µM) and the IC90 is 10.1 µg/mL (≈ 31.4 µM). For the same compound, in assay [2] (Table 1, 48 hours), the IC50 turned out to be 6.1 µg/mL (≈ 19 µM) and the concentration for an effect of 90% (IC90) amounted to 11.2 µg/mL (≈ 34.9 µM).
The like results for `CC(C)CCCCCCCCCCC(N)C(=O)O` (stereo not shown) [Compound 28, 2-Amino-13-methyl-tetradecanoic acid] were, in that order, 19.7 µg/mL (≈ 76.5 µM), 28.6 µg/mL (≈ 111 µM), 17.4 µg/mL (≈ 67.6 µM) and 25.3 µg/mL (≈ 98.3 µM).
With `CC(C)CCCCCCCCCCCCNc1ccc(O)c(O)c1` [Compound 32, N-(13-Methyltetradecyl)-4-amino-1,2-benzenediol], in assay [1] (K562, Table 1, 48 hours), the IC50 came out at 6.31 µg/mL (≈ 18.8 µM) and the IC90 was found to be 11.5 µg/mL (≈ 34.3 µM). In assay [2] (Table 1, 48 hours), the IC50 worked out at 5.75 µg/mL (≈ 17.1 µM) and the IC90 stood at 10.6 µg/mL (≈ 31.6 µM).
With `CC(C)CCCCCC=CC(=O)O` [Compound 33, 9-Methyl-2-decenoic acid], the IC50 is 51.2 µg/mL (≈ 278 µM) in assay [1] (K562, Table 1, 48 hours); 26.7 µg/mL (≈ 145 µM) in assay [1] (setting [3]); 40.5 µg/mL (≈ 220 µM) in assay [2] (setting [4]). Besides, the IC90 amounted to 51.2 µg/mL (≈ 278 µM) in assay [1] (setting [3]) and 91 µg/mL (≈ 494 µM) in assay [2] (setting [4]).
